Laboratory results: patent publication US9663478B2, “Benzotriazine oxides as drugs targeting Mycobacterium tuberculosis” (priority 2011, dated 2017)
Values after ≈ are worked out from the molar mass of the structure shown.

Experiments:
[1] = system: Enterococcus fecalis ATCC 29212; experiment: Spectrum of antimicrobial activity; format: cell-based
Mtb H37Rv [2] = experiment: TB MIC - ITR (UIC), Institute for Tuberculosis Research; format: cell-based, Mycobacterium tuberculosis; conditions: Mycobacterium tuberculosis, H37RV; Tables 1-4; read-out: TB MIC - ITR
[3] = system: Enterococcus faecium ATCC 19434; experiment: Spectrum of antimicrobial activity; format: cell-based
[4] = system: Salmonella typhimurium -Hisg46 SRI Collection; experiment: Spectrum of antimicrobial activity; format: cell-based
[5] = system: Staphylococcus aureus ATCC 29213; experiment: Spectrum of antimicrobial activity; format: cell-based
[6] = system: Enterobacter aerogenes ATCC 29751; experiment: Spectrum of antimicrobial activity; format: cell-based
[7] = system: Pseudomonas aeruginosa ATCC 27853; experiment: Spectrum of antimicrobial activity; format: cell-based
[8] = system: Escherichia coli pKM101 SRI Collection; experiment: Spectrum of antimicrobial activity; format: cell-based
Mtb H37Rv [9] = experiment: TB MIC - SRI, resazurin-based microplate assay; format: cell-based, Mycobacterium tuberculosis; conditions: source CSU; SI Table 1
[10] = system: Acinetobacter baumannii ATCC 17978; experiment: Spectrum of antimicrobial activity; format: cell-based
[11] = system: Staphylococcus aureus HA-MRSA NRS 382; experiment: Spectrum of antimicrobial activity; format: cell-based
NRP Mtb H37Rv cells = experiment: Low-oxygen recovery assay (LORA) MIC; format: cell-based, Mycobacterium tuberculosis; conditions: Mycobacterium tuberculosis, H37RV, read-out: LORA MIC - ITR
[12] = system: Escherichia coli ATCC 25922; experiment: Spectrum of antimicrobial activity; format: cell-based
[13] = system: Klebsiella pneumoniae ATCC 700721; experiment: Spectrum of antimicrobial activity; format: cell-based
[14] = system: Salmonella choleraesuis ATCC 13311; experiment: Spectrum of antimicrobial activity; format: cell-based
[15] = Plasma pharmacokinetics in female mice after oral administration; format: in vivo, mouse; conditions: 100 mg/kg
Experimental: In order to validate BTOs as a new lead series for the treatment of TB, we also evaluated their systemic exposure in the mouse after oral administration. A single dose (100 mg/kg) of 8a and 20q were administered to mice in order to profile the pharmacokinetics for the BTOs (Table 7). […] The elimination half-life was for each compound was shorter than our ideal target values, but the Tmax values indicate that they are rapidly absorbed after oral administration (FIGURE).
All pharmacokinetic studies were performed in accordance with SRI International's animal care policies in an AAALAC and OLAW accredited facility. The procedure for the pharmacokinetics studies followed a previously described method.^55 Briefly, the plasma pharmacokinetics of selected BTO derivatives were determined in female CD1 mice after administration of a single dose (100 mg/kg) by oral gavage. Blood was collected from three mice per time point at 5, 15, 30, and 60 min and 2, 4, 6, 8, and 24 h after dose administration. Means and standard deviations were calculated for the plasma drug concentrations at each time point. Pharmacokinetic analysis was performed using non compartmental methods (WinNonlin® Professional, Version 5.2, Pharsight Corp, Mountain View, Calif.). The following parameters were calculated: time to maximum plasma concentration (Tmax), maximum plasma concentration (Cmax), maximum plasma concentration extrapoloated to time 0 (C0), area under the plasma concentration-time curve to the last time point (AUClast) and to infinity (AUCinf).

[16] = system: Mycobacterium abscessus ATCC 19977; experiment: Spectrum of antimicrobial activity; format: cell-based
[17] = Solubility, shake-flask method; format: physicochemical; conditions: 0.9% saline solution at pH 7.4, triplicate
Experimental: The solubility of these two compounds was measured in triplicate using the shake-flask method in a 0.9% saline solution at pH 7.4. Both 8a and 20q had acceptable solubilities of 1.35 mg/mL and 0.28 mg/mL, respectively.
Compounds were ground into a fine powders using a mortar and pestle and added to a 25 mL glass Erlenmeyer flask with 5 mL of a 0.9% saline solution at pH 7.4. Approximately 20 mg of compound was added to each flask to ensure saturation. The flasks were then vigorously stirred using a magnetic stir bar at 25° C. for 48 hours. The samples were then filtered through a Whatman PVDF membrane (0.45 μm pore size) syringe filter. The concentration of compound in the supernatant was then measured using HPLC quantitation at the maximum absorption wavelength for each compound.

[18] = system: Enterobacter aerogenes SRI Collection; experiment: Spectrum of antimicrobial activity; format: cell-based
[19] = system: Enterococcus fecalis ATCC 51575; experiment: Spectrum of antimicrobial activity; format: cell-based
[20] = system: Moraxella catarrhalis ATCC 25238; experiment: Spectrum of antimicrobial activity; format: cell-based
[21] = system: Acinetobacter baumannii BAA 1605; experiment: Spectrum of antimicrobial activity; format: cell-based
Escherichia coli BAA 201 = experiment: Spectrum of antimicrobial activity; format: cell-based
[22] = system: Klebsiella pneumoniae ATCC 43816; experiment: Spectrum of antimicrobial activity; format: cell-based
[23] = system: Mycobacterium smegmatis ATCC 10143; experiment: Spectrum of antimicrobial activity; format: cell-based

CCNc1n[n+]([O-])c2ccccc2[n+]1[O-] [Compound 8a, 3-(ethylamino)benzo[e][1,2,4]triazine 1,4-dioxide]
Antimicrobial activity, Enterococcus fecalis [1]: 16 µg/mL | MIC (Mtb H37Rv [2]): 0.57 µg/mL (≈ 2.76 µM) | Antimicrobial activity, Enterococcus faecium [3]: >32 µg/mL | Antimicrobial activity, Salmonella typhimurium -Hisg46 [4]: >32 µg/mL | Antimicrobial activity, Staphylococcus aureus [5]: >32 µg/mL | Antimicrobial activity, Enterobacter aerogenes [6]: >32 µg/mL | Antimicrobial activity, Pseudomonas aeruginosa [7]: >32 µg/mL | Antimicrobial activity, Escherichia coli pKM101 [8]: 32 μg/mL | Antimicrobial activity, Mtb H37Rv (Mtb H37Rv [9]): 1.2 µg/mL | Antimicrobial activity, Acinetobacter baumannii [10]: 32 µg/mL | Antimicrobial activity, Staphylococcus aureus HA-MRSA [11]: 16 to 32 µg/mL | MIC (NRP Mtb H37Rv cells): 0.37 µg/mL (≈ 1.79 µM) | Antimicrobial activity, Escherichia coli [12]: 16 µg/mL | Antimicrobial activity, Klebsiella pneumoniae [13]: >32 µg/mL | Antimicrobial activity, Salmonella choleraesuis [14]: 32 µg/mL | AUCinf ([15]; female mice, oral): 6937 ng·h/mL | AUClast ([15]; female mice, oral): 6578 ng·h/mL | Cmax ([15]; female mice, oral): 9540 ng/mL | Tmax ([15]; female mice, oral): 4.8 min | t1/2 ([15]; female mice, oral): 1.5 h | plasma drug concentration at the 24 hr time point ([15]; mouse, in vivo, po): lower than the limit of quantitation | susceptibility of M. abscessus [16]: resistant | Antimicrobial activity, Mycobacterium abscessus ([16]; ATCC 19977): >32 µg/mL | solubility [17]: 1.35 mg/mL (≈ 6550 µM) | Antimicrobial activity, Enterobacter aerogenes [18]: >32 µg/mL | Antimicrobial activity, Enterococcus fecalis [19]: 32 µg/mL | Antimicrobial activity, Moraxella catarrhalis [20]: 32 µg/mL | Antimicrobial activity, Acinetobacter baumannii [21]: >32 µg/mL | Antimicrobial activity, Escherichia coli (Escherichia coli BAA 201): 16 µg/mL | Antimicrobial activity, Klebsiella pneumoniae [22]: >32 µg/mL | Antimicrobial activity, Mycobacterium smegmatis [23]: 5.0 µg/mL
